# According to US20240016938A1, “METHODS FOR INCREASING THE BIOAVAILABILITY OF NUCLEOSIDE MEDICINAL AGENTS” (ZOGENIX MDS, INC., priority 2022, published 2024):
# Where two headings read alike, the source gives them in different places.
# Experiment: Phase 1 open-label, fixed-sequence, single-ascending dose and food-effect PK study of MT1621 in adult healthy subjects
# Assay type: in vivo, human
# Conditions: for half-life: read-out: t½ (converted)
# Protocol: A phase 1 study was conducted as an open-label, fixed-sequence, single-ascending dose study in adult healthy subjects designed to evaluate the safety, tolerability, PK, and food-effect of MT1621 (dC and dT). To evaluate the PK of MT1621, the combination was administered at three different doses. Treatment A was a 43.3 mg/kg dose of MT1621 (i.e., a 43.3 mg/kg dose of dC and a 43.3 mg/kg dose of dT (each approximately equivalent to 1 dose of a 130 mg/kg daily dose, divided 3 times daily [TID])) in healthy male and female subjects under fasting conditions; Treatment B was an 86.7 mg/kg dose of MT1621 (i.e., a 86.7 mg/kg dose of dC and a 86.7 mg/kg dose of dT (each approximately equivalent to 1 dose of a 260 mg/kg daily dose, divided TID)) in healthy male and female subjects under fasting conditions; and Treatment C was a 133.3 mg/kg dose of MT1621 (i.e., a 133.3 mg/kg dose of dC and a 133.3 mg/kg dose of dT (each approximately equivalent to a 400 mg/kg daily dose, divided TID)) in healthy male and female subjects under fasting conditions. Additionally, Treatment D was a 133.3 mg/kg dose of MT1621 (i.e., a 133.3 mg/kg dose of dC and a 133.3 mg/kg dose of dT (each approximately equivalent to a 400 mg/kg daily dose, divided TID) in healthy male and female subjects under fed conditions, to determine the effect of a high-fat meal on the single-dose PK of MT1621.
# Methodology of open-label, Phase 1, fixed-sequence, single-dose, dose escalation, and food-effect study. Fourteen (14) healthy, adult, male and female subjects were enrolled with an approximately equal distribution (at least 40% of each sex) between male and female subjects.
# On Day 1 of each period, subjects received 1 of 3 dose levels of MT1621 under fasting conditions as escalating single doses over 3 periods in Part A (Treatments A, B, and C in Periods 1, 2, and 3, respectively) and with the highest dose under fed conditions in Part B (Treatment D in Period 4). Four (4) of 14 subjects that completed Part A (Periods 1 to 3) could not complete Part B (Treatment D in Period 4) during the original confinement. These subjects were then to return to the clinical unit and continue the study to complete Part B (Treatment D in Period 4); 2 of the 4 subjects completed Part B.
# Each treatment was assessed by blood and urine PK sampling pre-dose and up to 48 hours post-dose for the determination of dC and dT in plasma and urine PK, and possible future analysis of blood for PD biomarkers.
# A washout period of at least 2 days without drug between each treatment administration was maintained. Fourteen subjects were enrolled in the study, and 12 subjects completed the study. Data from 14 subjects were included in the PK analysis of Periods 1, 2, and 3 and data from 12 subjects were included in the PK analysis of Period 4.
# Study drug administered in Example 1 was 0.5 g dC and 0.5 g dT powders for solution and were reconstituted in juice or water.
# After reconstitution in a fixed amount of water or juice, the solution was administered via measured volume to provide the amounts specified in Studies A, B, C, and D.
# MT1621 was administered orally at Hour 0 on Day 1, following an overnight fast for Treatments A, B, and C and within 5 minutes of consumption of a standardized high-fat breakfast (which included eggs, bacon, and toast with butter) for Treatment D.
# Blood samples for the determination of plasma dC and dT concentrations were collected on Day 1 of each period at pre-dose (0 hour), and at 0.25, 0.5, 1, 1.5, 2, 3, 4, 5, 6, 8, 12, 24, and 48 after study drug administration. In Period 4, blood was collected for the 48-hour PK sample; for Periods 1 through 3, the 48-hour PK sample was collected at the same time as the pre-dose PK sample from the next period so only 1 sample was collected for both PK time points. It should be pointed out that Periods 1-3 used sampling up to 24 hours for PK while Period 4 used the complete 48-hour profile. […]
# [1] = 100*(test/reference): 133.3 mg/kg MT1621 fed vs fasted, baseline-adjusted plasma
# [2] = Treatment A: single 43.3 mg/kg MT1621, fasted, baseline-adjusted plasma, arithmetic mean ± SD
# [3] = Treatment B: single 86.7 mg/kg MT1621, fasted, baseline-adjusted plasma, arithmetic mean ± SD
# [4] = Treatment C: single 133.3 mg/kg MT1621, fasted, baseline-adjusted plasma, arithmetic mean ± SD
# [5] = Treatment D: single 133.3 mg/kg MT1621, fed (high-fat breakfast), baseline-adjusted plasma, arithmetic mean ± SD
# [6] = across the 3 fasted dose levels (Treatments A, B, C), plasma
structure (smiles),measurement,setting,value
"Cc1cn([C@H]2C[C@H](O)[C@@H](CO)O2)c(=O)[nH]c1=O [dT, β-D-2′-deoxythymidine]","increase in baseline adjusted AUC, fed compared to fasted","133.3 mg/kg MT1621, plasma",74%
same,"increase in baseline adjusted Cmax, fed compared to fasted","133.3 mg/kg MT1621, plasma",27%
same,AUC0-t GMR (%),[1],174.38%
same,Cmax GMR (%),[1],127.39%
same,AUC%extrap,[2],46.24 NC %
same,Kel,[2],0.1569 NC 1/hr
same,AUC%extrap,[3],6.481 ± 5.9830%
same,Kel,[3],0.0932 ± 0.07205 h⁻¹
same,AUC%extrap,[4],1.954 ± 1.6169%
same,Kel,[4],0.09785 ± 0.06094 h⁻¹
same,AUC%extrap,[5],1.244 ± 1.1349%
same,Kel,[5],0.2445 ± 0.2863 h⁻¹
same,"dose proportionality of AUC (total extent of exposure, AUC0-t and AUC0-inf)",[6],neither AUC nor Cmax was dose proportional
same,dose proportionality of Cmax,[6],neither AUC nor Cmax was dose proportional
same,Vd/F,"both sexes, human, oral, Treatment D: single 133.3 mg/kg MT1621, fed (high-fat breakfast), baseline-adjusted plasma, arithmetic mean ± SD, read-out: Vz/F",6220 ± 2880 L/kg
same,half-life,"both sexes, human, plasma, oral, 43.3 mg/kg, Treatment A: single 43.3 mg/kg MT1621, fasted, baseline-adjusted plasma, arithmetic mean ± SD",265 min
same,AUC(0-inf),"both sexes, human, plasma, oral, 43.3 mg/kg, Treatment A: single 43.3 mg/kg MT1621, fasted, baseline-adjusted plasma, geometric mean (geometric CV %)",3.56 ng·h/mL
same,AUC(0-t),"both sexes, human, plasma, oral, 43.3 mg/kg, Treatment A: single 43.3 mg/kg MT1621, fasted, baseline-adjusted plasma, geometric mean (geometric CV %), read-out: AUC0-4",8.78 ng·h/mL
same,AUC(0-t),"both sexes, human, plasma, oral, 43.3 mg/kg, Treatment A: single 43.3 mg/kg MT1621, fasted, baseline-adjusted plasma, geometric mean (geometric CV %), read-out: AUC0-6",11.1 ng·h/mL
same,AUC(0-t),"both sexes, human, plasma, oral, 43.3 mg/kg, Treatment A: single 43.3 mg/kg MT1621, fasted, baseline-adjusted plasma, geometric mean (geometric CV %), read-out: AUC0-48",18.2 ng·h/mL
same,AUC(0-t),"both sexes, human, plasma, oral, 43.3 mg/kg, Treatment A: single 43.3 mg/kg MT1621, fasted, baseline-adjusted plasma, geometric mean (geometric CV %), read-out: AUC0-t",12.6 ng·h/mL
same,Cmax,"both sexes, human, plasma, oral, 43.3 mg/kg, Treatment A: single 43.3 mg/kg MT1621, fasted, baseline-adjusted plasma, geometric mean (geometric CV %), read-out: Cmax",6.19 ng/mL
same,Tmax,"both sexes, human, plasma, oral, 43.3 mg/kg, Treatment A: single 43.3 mg/kg MT1621, fasted, baseline-adjusted plasma, median (minimum, maximum), read-out: Tmax",0.516 h
same,half-life,"both sexes, human, plasma, oral, 86.7 mg/kg, Treatment B: single 86.7 mg/kg MT1621, fasted, baseline-adjusted plasma, arithmetic mean ± SD",625 ± 357 min
same,AUC(0-inf),"both sexes, human, plasma, oral, 86.7 mg/kg, Treatment B: single 86.7 mg/kg MT1621, fasted, baseline-adjusted plasma, geometric mean (geometric CV %)",67.2 ng·h/mL
same,AUC(0-t),"both sexes, human, plasma, oral, 86.7 mg/kg, Treatment B: single 86.7 mg/kg MT1621, fasted, baseline-adjusted plasma, geometric mean (geometric CV %), read-out: AUC0-4",21 ng·h/mL
same,AUC(0-t),"both sexes, human, plasma, oral, 86.7 mg/kg, Treatment B: single 86.7 mg/kg MT1621, fasted, baseline-adjusted plasma, geometric mean (geometric CV %), read-out: AUC0-6",23.1 ng·h/mL
same,AUC(0-t),"both sexes, human, plasma, oral, 86.7 mg/kg, Treatment B: single 86.7 mg/kg MT1621, fasted, baseline-adjusted plasma, geometric mean (geometric CV %), read-out: AUC0-48",82.1 ng·h/mL
same,AUC(0-t),"both sexes, human, plasma, oral, 86.7 mg/kg, Treatment B: single 86.7 mg/kg MT1621, fasted, baseline-adjusted plasma, geometric mean (geometric CV %), read-out: AUC0-t",31.7 ng·h/mL
same,Cmax,"both sexes, human, plasma, oral, 86.7 mg/kg, Treatment B: single 86.7 mg/kg MT1621, fasted, baseline-adjusted plasma, geometric mean (geometric CV %), read-out: Cmax",14.2 ng/mL
same,Tmax,"both sexes, human, plasma, oral, 86.7 mg/kg, Treatment B: single 86.7 mg/kg MT1621, fasted, baseline-adjusted plasma, median (minimum, maximum), read-out: Tmax",1.06 h
same,AUC(0-t),"both sexes, human, plasma, oral, 133.3 mg/kg, Treatment C, fasted, baseline-adjusted plasma, ANOVA on ln-transformed data, read-out: AUC0-t Geometric LSM, 133.3 mg/kg MT1621, Fasted (Reference)",91.2 ng·h/mL
same,Cmax,"both sexes, human, plasma, oral, 133.3 mg/kg, Treatment C, fasted, baseline-adjusted plasma, ANOVA on ln-transformed data, read-out: Cmax Geometric LSM, 133.3 mg/kg MT1621, Fasted (Reference)",31.5 ng/mL
same,half-life,"both sexes, human, plasma, oral, 133.3 mg/kg, Treatment C: single 133.3 mg/kg MT1621, fasted, baseline-adjusted plasma, arithmetic mean ± SD",525 ± 242 min
same,AUC(0-inf),"both sexes, human, plasma, oral, 133.3 mg/kg, Treatment C: single 133.3 mg/kg MT1621, fasted, baseline-adjusted plasma, geometric mean (geometric CV %)",144 ng·h/mL
same,AUC(0-t),"both sexes, human, plasma, oral, 133.3 mg/kg, Treatment C: single 133.3 mg/kg MT1621, fasted, baseline-adjusted plasma, geometric mean (geometric CV %), read-out: AUC0-4",53.1 ng·h/mL
same,AUC(0-t),"both sexes, human, plasma, oral, 133.3 mg/kg, Treatment C: single 133.3 mg/kg MT1621, fasted, baseline-adjusted plasma, geometric mean (geometric CV %), read-out: AUC0-6",60.6 ng·h/mL
same,AUC(0-t),"both sexes, human, plasma, oral, 133.3 mg/kg, Treatment C: single 133.3 mg/kg MT1621, fasted, baseline-adjusted plasma, geometric mean (geometric CV %), read-out: AUC0-48",114 ng·h/mL
same,AUC(0-t),"both sexes, human, plasma, oral, 133.3 mg/kg, Treatment C: single 133.3 mg/kg MT1621, fasted, baseline-adjusted plasma, geometric mean (geometric CV %), read-out: AUC0-t",91.2 ng·h/mL
same,Cmax,"both sexes, human, plasma, oral, 133.3 mg/kg, Treatment C: single 133.3 mg/kg MT1621, fasted, baseline-adjusted plasma, geometric mean (geometric CV %), read-out: Cmax",31.5 ng/mL
same,Tmax,"both sexes, human, plasma, oral, 133.3 mg/kg, Treatment C: single 133.3 mg/kg MT1621, fasted, baseline-adjusted plasma, median (minimum, maximum), read-out: Tmax",1.25 h
same,AUC(0-t),"both sexes, human, plasma, oral, 133.3 mg/kg, Treatment D, fed, baseline-adjusted plasma, ANOVA on ln-transformed data, read-out: AUC0-t Geometric LSM, 133.3 mg/kg MT1621, Fed (Test)",159 ng·h/mL
same,Cmax,"both sexes, human, plasma, oral, 133.3 mg/kg, Treatment D, fed, baseline-adjusted plasma, ANOVA on ln-transformed data, read-out: Cmax Geometric LSM, 133.3 mg/kg MT1621, Fed (Test)",40.1 ng/mL
same,half-life,"both sexes, human, plasma, oral, 133.3 mg/kg, Treatment D: single 133.3 mg/kg MT1621, fed (high-fat breakfast), baseline-adjusted plasma, arithmetic mean ± SD",321 ± 187 min
same,AUC(0-inf),"both sexes, human, plasma, oral, 133.3 mg/kg, Treatment D: single 133.3 mg/kg MT1621, fed (high-fat breakfast), baseline-adjusted plasma, geometric mean (geometric CV %)",149 ng·h/mL
same,AUC(0-t),"both sexes, human, plasma, oral, 133.3 mg/kg, Treatment D: single 133.3 mg/kg MT1621, fed (high-fat breakfast), baseline-adjusted plasma, geometric mean (geometric CV %), read-out: AUC0-4",74.4 ng·h/mL
same,AUC(0-t),"both sexes, human, plasma, oral, 133.3 mg/kg, Treatment D: single 133.3 mg/kg MT1621, fed (high-fat breakfast), baseline-adjusted plasma, geometric mean (geometric CV %), read-out: AUC0-6",119 ng·h/mL
same,AUC(0-t),"both sexes, human, plasma, oral, 133.3 mg/kg, Treatment D: single 133.3 mg/kg MT1621, fed (high-fat breakfast), baseline-adjusted plasma, geometric mean (geometric CV %), read-out: AUC0-48",141 ng·h/mL
same,AUC(0-t),"both sexes, human, plasma, oral, 133.3 mg/kg, Treatment D: single 133.3 mg/kg MT1621, fed (high-fat breakfast), baseline-adjusted plasma, geometric mean (geometric CV %), read-out: AUC0-t",159 ng·h/mL
same,Cmax,"both sexes, human, plasma, oral, 133.3 mg/kg, Treatment D: single 133.3 mg/kg MT1621, fed (high-fat breakfast), baseline-adjusted plasma, geometric mean (geometric CV %), read-out: Cmax",40.1 ng/mL
same,Tmax,"both sexes, human, plasma, oral, 133.3 mg/kg, Treatment D: single 133.3 mg/kg MT1621, fed (high-fat breakfast), baseline-adjusted plasma, median (minimum, maximum), read-out: Tmax",4 h
same,Tmax,"both sexes, human, plasma, oral, under fasted conditions, read-out: median Tmax",1 h
same,Tmax,"both sexes, human, plasma, oral, under fed conditions, read-out: median Tmax",3 h
same,plasma exposure compared to endogenous (baseline) concentrations,"following MT1621, all 3 dose levels",consistently higher
